Measured values from patent US20250270213A1, “PI3Ka INHIBITORS” (Synnovation Therapeutics, Inc., priority 2022, published 2025).

Test system: T47D (PIK3CA H1047R) cells
Assay: pS473 AKT assay with 2.5% FBS, T47D cells
Format: cell-based
Conditions: Homo sapiens, pSer473 AKT, DMEM with 2.5% FBS, 2 h treatment, read-out: T47D_IC50
Protocol: Example B. pS473 AKT Assay Protocol with 2.5% FBS
T47D (PIK3CA H1047R) cells were cultured using 10-cm petri dishes with recommended medium plus 10% fetal bovine serum. One day before the assay, cells were seeded in 96-well plates. After overnight incubation, the medium was changed to DMEM with 2.5% fetal bovine serum (FBS) and the cells were treated with different concentrations of the compounds for 2 h. Cells were then fixed using 4% paraformaldehyde at room temperature for 20 min. Aspirate 4% paraformaldehyde, and wash cells using 1× regular phosphate buffered saline 3 times, 5 min each. Aspirate any residual phosphate buffered saline and block cells using 10% goat serum containing 1% bovine serum albumin and 0.3% Triton X-100 at room temperature for 1 h. Without any additional washing, primary antibodies (rabbit anti-pSer473 AKT) were diluted using blocking buffer and added at a final volume of 50 microliter per well. Keep assay plates with primary antibodies overnight at 4° C. Wash cells using 1× regular phosphate buffered saline 3 times, 5 min each. After the final wash, incubate cells with horseradish peroxidase-conjugated secondary antibodies (goat Anti-rabbit IgG) diluted using the same blocking buffer at room temperature for 1 h. Wash cells thoroughly using 1× regular phosphate buffered saline 3 times, 5 min each. Aspirate any residual phosphate buffered saline. Add Super-Signal ELISA Pico Chemiluminescent Substrate at a final volume of 100 microliter per well. Read plates on i3x Multi-Mode Microplate Reader and calculate IC50 values using GraphPad Prism software.

Row | IC50 | SMILES
1 | < 1 µM | CCn1ncc2c3c(C(C)Nc4ccc(C)nc4-c4cnn(C)c4)cc(C)cc3c(=O)n(C)c21 (stereo not drawn) [Compound 52, 3-Ethyl-4,7-dimethyl-9-(1-((6-methyl-2-(1-methyl-1H-pyrazol-4-yl)pyridin-3-yl)amino)ethyl)-3,4-dihydro-5H-pyrazolo[3,4-c]isoquinolin-5-one]
2 | < 1 µM | CCn1ncc2c3c(C(C)Nc4cccnc4-c4nnn[nH]4)cc(C)cc3c(=O)n(C)c21 (stereo not drawn) [Compound 72, 9-(1-((2-(1H-Tetrazol-5-yl)pyridin-3-yl)amino)ethyl)-3-ethyl-4,7-dimethyl-3,4-dihydro-5H-pyrazolo[3,4-c]isoquinolin-5-one]
3 | < 1 µM | CNC(=O)c1ccc(-c2nc(Cl)ccc2NC(C)c2cc(C)cc3c(=O)n(C)c4c(cnn4C4CCN(C)CC4)c23)cn1 (stereo not drawn) [Compound 163, 5-[6-chloro-3-[1-[4,7-dimethyl-3-(1-methyl-4-piperidyl)-5-oxo-pyrazolo[3,4-c]isoquinolin-9-yl]ethylamino]-2-pyridyl]-N-methyl-pyridine-2-carboxamide]
4 | < 1 µM | Cc1cc(C(C)Nc2ccc(Cl)nc2-c2ccn(C)c(=O)c2)c2c(c1)c(=O)n(C)c1c2cnn1CCO (stereo not drawn) [Example 255, 9-[1-[[6-chloro-2-(1-methyl-2-oxo-4-pyridyl)-3-pyridyl]amino]ethyl]-3-(2-hydroxyethyl)-4,7-dimethyl-pyrazolo[3,4-c]isoquinolin-5-one]
5 | < 1 µM | CCn1ncc2c3c(CNc4ccc(Cl)nc4-c4ccc(C(=O)NC)c(F)c4)cc(C)cc3c(=O)n(C)c21 [Example 225, 4-(6-Chloro-3-(((3-ethyl-4,7-dimethyl-5-oxo-4,5-dihydro-3H-pyrazolo[3,4-c]isoquinolin-9-yl)methyl)amino)pyridin-2-yl)-2-fluoro-N-methylbenzamide]
6 | < 1 µM | Cc1cc(C(C)Nc2ccccc2C(=O)O)c2c(c1)c(=O)n(C)c1nn(C3CCOCC3)cc21 (stereo not drawn) [Compound I-27, 2-((1-(4,7-Dimethyl-5-oxo-2-(tetrahydro-2H-pyran-4-yl)-4,5-dihydro-2H-pyrazolo[3,4-c]isoquinolin-9-yl)ethyl)amino)benzoic acid]
7 | < 1 µM | CCn1ncc2c3c(C(C)Nc4ccc(Cl)nc4C(=O)Nc4ccncc4)cc(C)cc3c(=O)n(C)c21 (stereo not drawn) [Compound 74, 6-chloro-3-((1-(3-ethyl-4,7-dimethyl-5-oxo-4,5-dihydro-3H-pyrazolo[3,4-c]isoquinolin-9-yl)ethyl)amino)-N-(pyridin-4-yl)picolinamide]
8 | < 1 µM | Cc1cc(C(C)Nc2ccc(Cl)nc2-c2ncn(C)n2)c2c(c1)c(=O)n(CC(F)F)c1c2cnn1CCO (stereo not drawn) [Example 259, 9-[1-[[6-Chloro-2-(1-methyl-1,2,4-triazol-3-yl)-3-pyridyl]amino]ethyl]-4-(2,2-difluoroethyl)-3-(2-hydroxyethyl)-7-methyl-pyrazolo[3,4-c]isoquinolin-5-one]
9 | < 1 µM | Cc1cc(C(C)Nc2ccc(Cl)nc2-c2ncn(C)n2)c2c(c1)c(=O)n(C)c1c2cnn1C1CCN(C(=O)C2(C#N)CC2)CC1 (stereo not drawn) [Example 194, 1-(4-(9-(1-((6-chloro-2-(1-methyl-1H-1,2,4-triazol-3-yl)pyridin-3-yl)amino)ethyl)-4,7-dimethyl-5-oxo-4,5-dihydro-3H-pyrazolo[3,4-c]isoquinolin-3-yl)piperidine-1-carbonyl)cyclopropane-1-carbonitrile]
10 | < 1 µM | CCn1ncc2c3c(C(CO)Nc4ccc(Cl)nc4-c4cnn(C)c4)cc(C)cc3c(=O)n(C)c21 (stereo not drawn) [Compound 77, 9-(1-((6-Chloro-2-(1-methyl-1H-pyrazol-4-yl)pyridin-3-yl)amino)-2-hydroxyethyl)-3-ethyl-4,7-dimethyl-3,4-dihydro-5H-pyrazolo[3,4-c]isoquinolin-5-one]
11 | < 1 µM | Cc1cc(C(C)Nc2ccc(Cl)nc2-c2cnn(C)c2)c2c(c1)c(=O)n(C)c1nn(C3CCN(CC(F)F)CC3)cc21 (stereo not drawn) [Example 212, 9-(1-((6-Chloro-2-(1-methyl-1H-pyrazol-4-yl)pyridin-3-yl)amino)ethyl)-2-(1-(2,2-difluoroethyl)piperidin-4-yl)-4,7-dimethyl-2,4-dihydro-5H-pyrazolo[3,4-c]isoquinolin-5-one]
12 | < 1 µM | Cc1cc(C(CO)Nc2ccc(Cl)nc2-c2ccc3c(c2)CN(C)C3=O)c2c(c1)c(=O)n1c3c2cnn3CCC1 (stereo not drawn) [Compound 333, 10-(1-((6-chloro-2-(2-methyl-1-oxoisoindolin-5-yl)pyridin-3-yl)amino)-2-hydroxyethyl)-8-methyl-4,5-dihydro-3H,6H-2,2a,5a-triazaaceanthrylen-6-one]
13 | < 1 µM | CCn1ncc2c3c(C(C)Nc4ccc(Cl)nc4-c4cnn(C5CCN(CCC#N)CC5)c4)cc(C)cc3c(=O)n(C)c21 (stereo not drawn) [Example 234, 3-(4-(4-(6-chloro-3-((1-(3-ethyl-4,7-dimethyl-5-oxo-4,5-dihydro-3H-pyrazolo[3,4-c]isoquinolin-9-yl)ethyl)amino)pyridin-2-yl)-1H-pyrazol-1-yl)piperidin-1-yl)propanenitrile]
14 | < 1 µM | Cc1cc(C(C)Nc2ccc(C)nc2-c2nnn(C)n2)c2c(c1)c(=O)n1c3c2cnn3CCC1 (stereo not drawn) [Compound 326, 8-Methyl-10-(1-((6-methyl-2-(2-methyl-2H-tetrazol-5-yl)pyridin-3-yl)amino)ethyl)-4,5-dihydro-3H,6H-2,2a,5a-triazaaceanthrylen-6-one]
15 | < 1 µM | Cc1cc(C(C)Nc2ccc(Cl)nc2-c2cnn(C)c2)c2c(c1)c(=O)n1c3c2cnn3C(CO)CC1 (stereo not drawn) [Example 287, 10-(1-((6-chloro-2-(1-methyl-1H-pyrazol-4-yl)pyridin-3-yl)amino)ethyl)-3-(hydroxymethyl)-8-methyl-4,5-dihydro-3H,6H-2,2a,5a-triazaaceanthrylen-6-one]
16 | < 1 µM | CCn1ncc2c3c(C(C)Nc4ccc(Cl)nc4-c4ncn(C)n4)cc(C)cc3c(=O)n(C3CC3)c21 (stereo not drawn) [Example 221, 9-(1-((6-Chloro-2-(1-methyl-1H-1,2,4-triazol-3-yl)pyridin-3-yl)amino)ethyl)-4-cyclopropyl-3-ethyl-7-methyl-3,4-dihydro-5H-pyrazolo[3,4-c]isoquinolin-5-one]
17 | < 1 µM | Cc1cc(C(C)Nc2ccc(Cl)nc2-c2noc(=O)[nH]2)c2c(c1)c(=O)n(C)c1nn(C3CCOCC3)cc21 (stereo not drawn) [Example 200, 3-(6-chloro-3-((1-(4,7-dimethyl-5-oxo-2-(tetrahydro-2H-pyran-4-yl)-4,5-dihydro-2H-pyrazolo[3,4-c]isoquinolin-9-yl)ethyl)amino)pyridin-2-yl)-1,2,4-oxadiazol-5(4H)-one]
18 | < 1 µM | CCn1c(=O)c2cc(C)cc(C(C)Nc3ccc(Cl)nc3N3CCOCC3)c2c2cnn(-c3ccccn3)c21 (stereo not drawn) [Example 270, 9-(1-((6-chloro-2-morpholinopyridin-3-yl)amino)ethyl)-4-ethyl-7-methyl-3-(pyridin-2-yl)-3,4-dihydro-5H-pyrazolo[3,4-c]isoquinolin-5-one]
19 | < 1 µM | Cc1cc(C(C)Nc2ccc(Cl)nc2N2CCC(O)CC2)c2c(c1)c(=O)n1c3c2cnn3CCC1 (stereo not drawn) [Compound 291, 10-(1-((6-chloro-2-(4-hydroxypiperidin-1-yl)pyridin-3-yl)amino)ethyl)-8-methyl-4,5-dihydro-3H,6H-2,2a,5a-triazaaceanthrylen-6-one]
20 | < 1 µM | Cc1cc(C(C)Nc2ccc(Cl)nc2-c2ncn(C)n2)c2c(c1)c(=O)n(C)c1c2cnn1C1CCN(CCO)C1 (stereo not drawn) [Compound 138, 9-(1-((6-chloro-2-(1-methyl-1H-1,2,4-triazol-3-yl)pyridin-3-yl)amino)ethyl)-3-(1-(2-hydroxyethyl)pyrrolidin-3-yl)-4,7-dimethyl-3,4-dihydro-5H-pyrazolo[3,4-c]isoquinolin-5-one]
21 | < 1 µM | CCn1ncc2c3c(C(C)Nc4ccc(Cl)nc4C4CCN(C(C)=O)CC4)cc(C)cc3c(=O)n(C)c21 (stereo not drawn) [Example 241, 9-[1-[[2-(1-Acetyl-4-piperidyl)-6-chloro-3-pyridyl]amino]ethyl]-3-ethyl-4,7-dimethyl-pyrazolo[3,4-c]isoquinolin-5-one]
22 | < 1 µM | Cc1cc(C(C)Nc2ccc(Cl)nc2-c2ncn(C)n2)c2c(c1)c(=O)n(C)c1c2cnn1C1CN(C[C@@H](C)O)C1 (stereo partly drawn) [Compound 92, 9-(1-((6-chloro-2-(1-methyl-1H-1,2,4-triazol-3-yl)pyridin-3-yl)amino)ethyl)-3-(1-((R)-2-hydroxypropyl)azetidin-3-yl)-4,7-dimethyl-3,4-dihydro-5H-pyrazolo[3,4-c]isoquinolin-5-one]
23 | < 1 µM | Cc1cc(C(C)Nc2ccc(Cl)nc2-c2cnn(C)c2)c2c(c1)c(=O)n(C)c1c2cnn1CC1CCN(C(=O)N(C)C)CC1 (stereo not drawn) [Compound 108, 4-((9-(1-((6-chloro-2-(1-methyl-1H-pyrazol-4-yl)pyridin-3-yl)amino)ethyl)-4,7-dimethyl-5-oxo-4,5-dihydro-3H-pyrazolo[3,4-c]isoquinolin-3-yl)methyl)-N,N-dimethylpiperidine-1-carboxamide]
24 | < 1 µM | Cc1cc(C(C)Nc2ccc(Cl)nc2-c2ncn(C)n2)c2c(c1)c(=O)n(C)c1c2cnn1C1CN(C(=O)CO)C1 (stereo not drawn) [Compound 103, 9-(1-((6-Chloro-2-(1-methyl-1H-1,2,4-triazol-3-yl)pyridin-3-yl)amino)ethyl)-3-(1-(2-hydroxyacetyl)azetidin-3-yl)-4,7-dimethyl-3,4-dihydro-5H-pyrazolo[3,4-c]isoquinolin-5-one]
